Experimental data from patent US20210380602A1, “NOVEL PYRROLE AND PYRIDONE DERIVATIVES AND USES THEREOF” (VIRGINIA COMMONWEALTH UNIVERSITY, priority 2018, published 2021).
Where two headings read alike, the source gives them in different places.

Test system: HIV-1IIIB
Assay: Anti-HIV cytoprotection assay in CEM-SS cells infected with HIV-1IIIB, XTT viability readout after 6 days
Type: cell-based
Description: (§1) In some aspect, CEM-SS cells were incubated at 37° C./5% CO2 with serially diluted compound and a known titer of HIV-1IIIB for 6 days. The CEM-SS cell line is a derivative of the human T lymphosarcoma cell line CEM that is permissive for vif-deficient HIV-1 replication. Following the incubation, the cells were stained with the tetrazolium dye XTT and read at 460/650 nm on a spectrophotometer to evaluate cellular viability. Efficacy and toxicity values were calculated using linear regression analysis. The efficacy of compound H-a was compared to that of dolutegravir. The EC50 of compound II-a was in a range of 0.070-0.02 nM (e.g. 0.070, 0.075, 0.080, 0.085, 0.090, 0.095, 0.010, 0.015 or 0.02 nM)
as §1, with “CEM-SS” for “In some aspect, CEM-SS”, “analysis.” for “analysis. The efficacy of compound H-a was compared to that of dolutegravir. The EC50 of compound II-a was in a range of 0.070-0.02 nM (e.g. 0.070, 0.075, 0.080, 0.085, 0.090, 0.095, 0.010, 0.015 or 0.02 nM)”

## C[C@@H]1CCO[C@H]2Cn3cc(C(=O)NCc4ccc(F)cc4F)c(=O)c(O)c3C(=O)N12 [Compound I, Dolutegravir]
Human immunodeficiency virus 1, CEM-SS, 144 h
  EC50: 0.12 nM

## C[C@@H]1CCO[C@H]2Cn3cc(C(=O)C(=O)NCc4ccc(F)cc4F)c(O)c3C(=O)N12 [Compound II-a]
  EC50: 0.095 nM
